Measured values taken from patent US10669238B2, “Irreversible bruton's tyrosine kinase inhibitor” (HEFEI INSTITUTES OF PHYSICAL SCIENCE, CHINESE ACADEMY OF …, priority 2016, dated 2020).

Target: BTK protein kinase (Homo sapiens, UniProt Q06187)
Experiment: In vitro enzymatic activity against BTK (ADP-Glo)
Assay type: biochemical
Details: compound with BTK 4 hours at room temperature, ATP 10 μM, 37° C. 1 hour
Protocol: In vitro enzymatic activity of the compounds against BTK was determined in a experimental assay of in vitro enzymatic activity using […] kit (purchased from Progema, USA).
9 μL of BTK protein kinase (at a concentration of 1.5 ng/μL) was used to react with compounds (1 μL) shown in the following table that were diluted three times in gradient at room temperature for 4 hours (the final concentration of the compound being 10 μM, 3 μM, 1 μM, 0.3 μM, 0.1 μM, 0.03 μM, 0.01 μM, 0.003 μM);
2 μL of ATP and 3 μL of the substrate Poly(4:1 Glu, Tyr)Peptide (Promega, USA) (the final concentrations being 10 μM and 0.2 μg/μL, respectively) were added to allow reaction at 37° C. for 1 hour;
5 μL of BTK kinase solution after reaction was taken and added into 5 μL of ADP-Glo™ (Promega, USA) reagent to allow reaction at room temperature for 40 mins so as to terminate the kinase reaction and exhaust the remaining ATP;
10 μL kinase detecting reagent was added to convert ADP to ATP, and newly synthesized ATP was detected using coupled luciferase/[…] reaction, then the IC50 values were calculated by using a plotting method based on the Envision reading.

Chain of BTK protein kinase (Q06187 whole entry): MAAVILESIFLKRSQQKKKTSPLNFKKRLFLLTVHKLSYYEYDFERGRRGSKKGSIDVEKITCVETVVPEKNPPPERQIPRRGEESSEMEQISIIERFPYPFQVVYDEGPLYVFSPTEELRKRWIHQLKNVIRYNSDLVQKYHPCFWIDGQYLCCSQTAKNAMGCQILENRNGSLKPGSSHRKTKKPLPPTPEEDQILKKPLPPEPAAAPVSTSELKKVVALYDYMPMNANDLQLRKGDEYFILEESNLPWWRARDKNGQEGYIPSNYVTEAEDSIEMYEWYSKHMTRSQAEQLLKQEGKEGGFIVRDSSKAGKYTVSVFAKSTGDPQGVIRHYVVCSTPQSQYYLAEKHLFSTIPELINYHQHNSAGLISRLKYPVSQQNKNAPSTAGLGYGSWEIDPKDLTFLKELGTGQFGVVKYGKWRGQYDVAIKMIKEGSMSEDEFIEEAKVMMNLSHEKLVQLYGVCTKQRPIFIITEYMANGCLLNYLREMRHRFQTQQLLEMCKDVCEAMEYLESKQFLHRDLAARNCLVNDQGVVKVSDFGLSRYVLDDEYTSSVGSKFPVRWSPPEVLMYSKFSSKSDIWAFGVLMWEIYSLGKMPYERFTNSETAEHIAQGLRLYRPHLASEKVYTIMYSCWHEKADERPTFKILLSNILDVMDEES

Row | Structure (SMILES) | IC50 (values in nM) | IC50 (values given in μM)
1 | C=CC(=O)Nc1cc(Nc2cc(-c3cccc(NC(=O)c4ccc(N5CCCC5)cc4)c3C)cn(C)c2=O)ccc1C(=O)N1CCOCC1 [Compound 45, N-(3-(5-((3-acrylamide-4-(morpholin-4-carbonyl)phenyl)amino)-1-methyl-6-oxo-1,6-dihydropyridin-3-yl)-2-methylphenyl)-4-(pyrrolidin-1-yl)benzoylamide] | 101 nM | –
2 | Cc1c(NC(=O)c2ccc(C(C)(C)C)cc2)cccc1-c1cc(Nc2ccc(C(=O)N3CCCC3)c(NC(=O)CCl)c2)c(=O)n(C)c1 [Compound 32, N-(3-(5-((3-chloroacetamide-4-(pyrrolidin-1-carbonyl)phenyl)amino)-1-methyl-6-oxo-1,6-dihydropyridin-3-yl)-2-methylphenyl)-4-(tert-butyl)benzamide] | 29 nM | –
3 | C=CC(=O)Nc1cc(Nc2cc(-c3cccc(NC(=O)c4ccc(N(C)C)cc4)c3C)cn(C)c2=O)ccc1C(=O)N1CCCC(O)C1 (centres unmarked) [Compound 55, N-(3-(5-((3-acrylamide-4-(3-hydroxypiperdin-1-carbonyl)phenyl)amino)-1-methyl-6-oxo-1,6-dihydropyridin-3-yl)-2-methylphenyl)-4-(dimethylamino)benzoylamide] | 181 nM | –
4 | C=CC(=O)Nc1ccc(NC(=O)c2ccc(C(C)(C)C)cc2)c(C)c1-c1cc(Nc2ccc(C(=O)N3CCOCC3)cc2)c(=O)n(C)c1 [Compound 24] | – | 1770 nM
5 | C=CC(=O)Nc1cc(Nc2cc(-c3cccc(NC(=O)c4ccc5c(c4)OCCO5)c3C)cn(C)c2=O)ccc1C(=O)N1CCOCC1 [Compound 44, N-(3-(5-((3-acrylamide-4-(morpholin-4-carbonyl)phenyl)amino)-1-methyl-6-oxo-1,6-dihydropyridin-3-yl)-2-methylphenyl)-2,3-dihydrobenzo[b][1,4]dioxin-6-carboxamide] | 72 nM | –
6 | C=CC(=O)Nc1cc(Nc2cc(-c3cccc(NC(=O)c4ccc(N(C)C)cc4)c3C)cn(C)c2=O)ccc1C(=O)N1CCC(OC)CC1 [Compound 52, N-(3-(5-((3-acrylamide-4-(4-methoxypiperidin-1-carbonyl)phenyl)amino)-1-methyl-6-oxo-1,6-dihydropyridin-3-yl)-2-methylphenyl)-4-(dimethylamino)benzoylamide] | 586 nM | –
7 | C=CC(=O)Nc1cc(Nc2cc(-c3cccc(NC(=O)c4ccc(C(C)(C)C)cc4)c3C)cn(C)c2=O)ccc1C(=O)N1CCN(C(=O)OC(C)(C)C)CC1 [Compound 38, tertbutyl 4-(2-acrylamide-4-((5-(3-(4-(tert-butyl)benzamide)-2-methylphenyl)-1-methyl-2-oxo-1,2-dihydropyridin-3-yl)amino)benzoyl)piperazin-1-carboxylate] | 85 nM | –
8 | C=CC(=O)Nc1cc(Nc2cc(-c3cccc(NC(=O)c4ccc(N(C)C)cc4)c3C)cn(C)c2=O)ccc1C(=O)NC1CCOCC1 [Compound 51, 2-acrylamide-4-((5-(3-(4-(dimethylamino)benzoylamide)-2-methylphenyl)-1-methyl-2-oxo-1,2-dihydropyridin-3-yl)amino)-N-(tetrahydro-2H-pyran-4-yl)benzoylamide] | 89 nM | –
9 | Cc1c(NC(=O)c2ccc(C(C)(C)C)cc2)cccc1-c1cc(Nc2ccc(C(=O)N3CCOCC3)c(NC(=O)CCl)c2)c(=O)n(C)c1 [Compound 2, N-(3-(5-((3-chloroacetamide-4-(morpholin-4-carbonyl)phenyl)amino)-1-methyl-6-oxo-1,6-dihydropyridin-3-yl)-2-methylphenyl)-4-(tert-butyl)benzamide] | 37.9 nM | –
10 | C=CC(=O)Nc1cc(Nc2cc(-c3cccc(NC(=O)c4ccc(N(C)C)cc4)c3C)cn(C)c2=O)ccc1C(=O)N1CCCCC1 [Compound 50, N-(3-(5-((3-acrylamide-4-(piperidin-1-carbonyl)phenyl)amino)-1-methyl-6-oxo-1,6-dihydropyridin-3-yl)-2-methylphenyl)-4-(dimethylamino)benzoylamide] | 91 nM | –
11 | C=CC(=O)Nc1cc(Nc2cc(-c3cccc(NC(=O)c4ccc(N(C)C)cc4)c3C)cn(C)c2=O)ccc1C(=O)NCCOC [Compound 53, 2-acrylamide-4-((5-(3-(4-(dimethylamino)benzoylamide)-2-methylphenyl)-1-methyl-2-oxo-1,2-dihydropyridin-3-yl)amino)-N-(2-methoxyethyl)benzoylamide] | 667 nM | –
12 | Cc1c(NC(=O)c2ccc(N3CCOCC3)cc2)cccc1-c1cc(Nc2ccc(C(=O)N3CCOCC3)c(NC(=O)CCl)c2)c(=O)n(C)c1 [Compound 16, N-(3-(5-((3-chloroacetamide-4-(morpholin-4-carbonyl)phenyl)amino)-1-methyl-6-oxo-1,6-dihydropyridin-3-yl)-2-methylphenyl)-4-morpholinbenzoylamide] | 437 nM | –

Further lines, results first:

Row | IC50 (values in nM) | IC50 (values given in μM) | Structure (SMILES)
13 | 83.6 nM | – | C=CC(=O)Nc1cc(Nc2cc(-c3cccc(NC(=O)c4cc5c(s4)CCCC5)c3C)cn(C)c2=O)ccc1C(=O)N1CCCC1 [Compound 69, N-(3-(5-((3-acrylamide-4-(pyrrolidin-1-carbonyl)phenyl)amino)-1-methyl-6-oxo-1,6-dihydropyridin-3-yl)-2-methylphenyl)-4,5,6,7-tetrahydrobenzo[b]thiophene-2-carboxamide]
14 | 114 nM | – | C=CC(=O)Nc1cc(Nc2cc(-c3cccc(NC(=O)c4cc(C)cs4)c3C)cn(C)c2=O)ccc1C(=O)N1CCOCC1 [Compound 70, N-(3-(5-((3-acrylamide-4-(morpholin-4-carbonyl)phenyl)amino)-1-methyl-6-oxo-1,6-dihydropyridin-3-yl)-2-methylphenyl)-4-methylthiophene-2-carboxamide]
15 | 23 nM | – | C=CC(=O)Nc1cc(Nc2cc(-c3cccc(NC(=O)c4ccc(N(C)C)cc4)c3C)cn(C)c2=O)ccc1N1CCN(CC)CC1 [Compound 74, N-(3-(5-((3-acrylamide-4-(4-ethylpiperazin-1-yl)phenyl)amino)-1-methyl-6-oxo-1,6-dihydropyridin-3-yl)-2-methylphenyl)-4-(dimethylamino)benzoylamide]
16 | 7.8 nM | – | C=CC(=O)Nc1cc(Nc2cc(-c3cccc(NC(=O)c4cc5ccccc5s4)c3C)cn(C)c2=O)ccc1N1CCC(N(C)C)CC1 [Compound 84, N-(3-(5-((3-acrylamide-4-(4-(dimethylamino)piperidin-1-yl)phenyl)amino)-1-methyl-6-oxo-1,6-dihydropyridin-3-yl)-2-methylphenyl)benzo[b]thiophene-2-carboxamide]
17 | 156 nM | – | C=CC(=O)Nc1cc(Nc2cc(-c3cccc(NC(=O)c4cc5ccccc5s4)c3C)cn(C)c2=O)ccc1N1CCN(CC)CC1 [Compound 91, N-(3-(5-((3-acrylamide-4-(4-ethylpiperazin-1-yl)phenyl)amino)-1-methyl-6-oxo-1,6-dihydropyridin-3-yl)-2-methylphenyl)benzo[b]thiophene-2-carboxamide]
18 | 180 nM | – | C=CC(=O)Nc1cc(Nc2cc(-c3cccc(NC(=O)c4ccc(C5CC5)cc4)c3C)cn(C)c2=O)ccc1C(=O)N1CCOCC1 [Compound 66, N-(3-(5-((3-acrylamide-4-(morpholin-4-carbonyl)phenyl)amino)-1-methyl-6-oxo-1,6-dihydropyridin-3-yl)-2-methylphenyl)-4-cyclopropylbenzoylamide]
19 | 130 nM | – | C=CC(=O)Nc1cc(Nc2cc(-c3cccc(NC(=O)c4cc5ccccc5s4)c3C)cn(C)c2=O)ccc1-n1cccn1 [Compound 85, N-(3-(5-((3-acrylamide-4-(1H-pyrazol-1-yl)phenyl)amino)-1-methyl-6-oxo-1,6-dihydropyridin-3-yl)-2-methylphenyl)benzo[b]thiophene-2-carboxamide]
20 | 25 nM | – | C=CC(=O)Nc1cc(Nc2cc(-c3cccc(NC(=O)c4cc5c(s4)CCCC5)c3C)cn(C)c2=O)ccc1C(=O)N1CCOCC1 [Compound 65, N-(3-(5-((3-acrylamide-4-(morpholin-4-carbonyl)phenyl)amino)-1-methyl-6-oxo-1,6-dihydropyridin-3-yl)-2-methylphenyl)-4,5,6,7-tetrahydrobenzo[b]thiophene-2-carboxamide]
21 | 25 nM | – | CCC(=O)Nc1cc(Nc2cc(-c3cccc(NC(=O)c4cc5c(s4)CCCC5)c3C)cn(C)c2=O)ccc1C(=O)N1CCOCC1 [Compound 67, N-(3-(5-((3-propanamide-4-(morpholin-4-carbonyl)phenyl)amino)-1-methyl-6-oxo-1,6-dihydropyridin-3-yl)-2-methylphenyl)-4,5,6,7-tetrahydrobenzo[b]thiophene-2-carboxamide]
22 | 800 nM | – | C=CC(=O)Nc1cc(Nc2cc(-c3cccc(NC(=O)c4ccc(C)c(C(F)(F)F)c4)c3C)cn(C)c2=O)ccc1C(=O)N1CCOCC1 [Compound 63, N-(3-(5-((3-acrylamide-4-(morpholin-4-carbonyl)phenyl)amino)-1-methyl-6-oxo-1,6-dihydropyridin-3-yl)-2-methylphenyl)-4-methyl-3-(trifluoromethyl)benzoylamide]
23 | 7 nM | – | C=CC(=O)Nc1cc(Nc2cc(-c3cccc(NC(=O)c4cc5c(s4)CCCC5)c3C)cn(C)c2=O)ccc1N1CCN(C)CC1 [Compound 75, N-(3-(5-((3-acrylamide-4-(4-methylpiperazin-1-yl)phenyl)amino)-1-methyl-6-oxo-1,6-dihydropyridin-3-yl)-2-methylphenyl)-4,5,6,7-tetrahydrobenzo[b]thiophene-2-carboxamide]
